Reference: PubChem BioAssay AID2060512 (Molecular Pharmacology Branch, DTP, NCI, 2025)

System: 186277-243-T-J2-PDC complex spheroid viability
Assay: Anticancer human tumor 186277-243-T-J2-PDC patient-derived colon adenocarcinoma cell line growth inhibition [GQUAD]
Conditions: for IC50: curve of first compound; for viability, T/C: stronger effect = lower value
Outline: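 Multi-cell-type spheroids of tumor cells with HUVEC and mesenchymal stem cells, treated with drug combinations. Concentrations descend in half-log steps from near clinical Cmax, or from 10 microM where Cmax is unknown; viability read-out.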

[1] = second compound 0.0316 µM, first compound 0.0316 µM
[2] = second compound 0.0316 µM, first compound 0.1 µM
[3] = second compound 0.0316 µM, first compound 0.316 µM
[4] = second compound 0.0316 µM, first compound 1 µM
[5] = second compound 0.0316 µM, first compound 3.16 µM
[6] = second compound 0.0316 µM, first compound 10 µM
[7] = second compound 0.1 µM, first compound 0.0316 µM
[8] = second compound 0.1 µM, first compound 0.1 µM
[9] = second compound 0.1 µM, first compound 0.316 µM
[10] = second compound 0.1 µM, first compound 1 µM
[11] = second compound 0.1 µM, first compound 3.16 µM
[12] = second compound 0.1 µM, first compound 10 µM
[13] = second compound 0.316 µM, first compound 0.0316 µM
[14] = second compound 0.316 µM, first compound 0.1 µM
[15] = second compound 0.316 µM, first compound 0.316 µM
[16] = second compound 0.316 µM, first compound 1 µM
[17] = second compound 0.316 µM, first compound 3.16 µM
[18] = second compound 0.316 µM, first compound 10 µM
[19] = second compound 1 µM, first compound 0.0316 µM
[20] = second compound 1 µM, first compound 0.1 µM
[21] = second compound 1 µM, first compound 0.316 µM
[22] = second compound 1 µM, first compound 1 µM
[23] = second compound 1 µM, first compound 3.16 µM
[24] = second compound 1 µM, first compound 10 µM
[25] = second compound 3.16 µM, first compound 0.0316 µM
[26] = second compound 3.16 µM, first compound 0.1 µM
[27] = second compound 3.16 µM, first compound 0.316 µM
[28] = second compound 3.16 µM, first compound 1 µM
[29] = second compound 3.16 µM, first compound 3.16 µM
[30] = second compound 3.16 µM, first compound 10 µM
[31] = second compound 10 µM, first compound 0.0316 µM
[32] = second compound 10 µM, first compound 0.1 µM
[33] = second compound 10 µM, first compound 0.316 µM
[34] = second compound 10 µM, first compound 1 µM
[35] = second compound 10 µM, first compound 3.16 µM
[36] = second compound 10 µM, first compound 10 µM
[37] = second compound 0.0316 µM, first compound 0.000999 µM
[38] = second compound 0.0316 µM, first compound 0.00316 µM
[39] = second compound 0.0316 µM, first compound 0.00999 µM
[40] = second compound 0.0316 µM, first compound 0.0999 µM
[41] = second compound 0.1 µM, first compound 0.000999 µM
[42] = second compound 0.1 µM, first compound 0.00316 µM
[43] = second compound 0.1 µM, first compound 0.00999 µM
[44] = second compound 0.1 µM, first compound 0.0999 µM
[45] = second compound 0.316 µM, first compound 0.000999 µM
[46] = second compound 0.316 µM, first compound 0.00316 µM
[47] = second compound 0.316 µM, first compound 0.00999 µM
[48] = second compound 0.316 µM, first compound 0.0999 µM
[49] = second compound 1 µM, first compound 0.000999 µM
[50] = second compound 1 µM, first compound 0.00316 µM
[51] = second compound 1 µM, first compound 0.00999 µM
[52] = second compound 1 µM, first compound 0.0999 µM
[53] = second compound 3.16 µM, first compound 0.000999 µM
[54] = second compound 3.16 µM, first compound 0.00316 µM
[55] = second compound 3.16 µM, first compound 0.00999 µM
[56] = second compound 3.16 µM, first compound 0.0999 µM
[57] = second compound 10 µM, first compound 0.000999 µM
[58] = second compound 10 µM, first compound 0.00316 µM
[59] = second compound 10 µM, first compound 0.00999 µM
[60] = second compound 10 µM, first compound 0.0999 µM
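Also: spheroids exposed to drugs for 7 days.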
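For viability, T/C in this document: 100% = DMSO vehicle control viability.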

Structure (SMILES): CC1COCCN1c1cc(C2(O)CC3CCC(C2)O3)c2cnn(-c3ccn[nH]3)c2n1 (stereo not drawn) + Cc1[nH]c2ccc(F)cc2c1-c1nc2c3cccnc3c3ncccc3c2[nH]1
- IC50 (second compound 0.0316 µM): 0.0381 µM
- IC50 (second compound 0.1 µM): 0.0339 µM
- IC50 (second compound 0.316 µM): < 0.0316 µM
- IC50 (second compound 1 µM): < 0.0316 µM
- IC50 (second compound 3.16 µM): < 0.0316 µM
- IC50 (second compound 10 µM): 0.0332 µM
- viability, T/C [1]: 57.5%
- viability, T/C [2]: 10.8%
- viability, T/C [3]: 6.48%
- viability, T/C [4]: 5.12%
- viability, T/C [5]: 5.33%
- viability, T/C [6]: 4.69%
- viability, T/C [7]: 52.6%
- viability, T/C [8]: 10.2%
- viability, T/C [9]: 8.88%
- viability, T/C [10]: 4.75%
- viability, T/C [11]: 5.69%
- viability, T/C [12]: 3.63%
- viability, T/C [13]: 31.9%
- viability, T/C [14]: 11.2%
- viability, T/C [15]: 8.68%
- viability, T/C [16]: 5.79%
- viability, T/C [17]: 6.74%
- viability, T/C [18]: 4.58%
- viability, T/C [19]: 40.6%
- viability, T/C [20]: 22.6%
- viability, T/C [21]: 6.11%
- viability, T/C [22]: 7.77%
- viability, T/C [23]: 6.18%
- viability, T/C [24]: 4.27%
- viability, T/C [25]: 48.3%
- viability, T/C [26]: 14.4%
- viability, T/C [27]: 6.36%
- viability, T/C [28]: 4.01%
- viability, T/C [29]: 5.26%
- viability, T/C [30]: 2.84%
- viability, T/C [31]: 52%
- viability, T/C [32]: 16.5%
- viability, T/C [33]: 8.81%
- viability, T/C [34]: 3.92%
- viability, T/C [35]: 4.33%
- viability, T/C [36]: 1.45%

Structure (SMILES): CCc1c2c(nc3ccc(O)cc13)-c1cc3c(c(=O)n1C2)COC(=O)[C@]3(O)CC + Cc1[nH]c2ccc(F)cc2c1-c1nc2c3cccnc3c3ncccc3c2[nH]1
- IC50 (second compound 0.0316 µM): 0.013 µM
- IC50 (second compound 0.1 µM): 0.0131 µM
- IC50 (second compound 0.316 µM): 0.0103 µM
- IC50 (second compound 1 µM): 0.0113 µM
- IC50 (second compound 3.16 µM): 0.00739 µM
- IC50 (second compound 10 µM): 0.0157 µM
- viability, T/C [37]: 99.6%
- viability, T/C [38]: 71.6%
- viability, T/C [39]: 62.5%
- viability, T/C [1]: 29.9%
- viability, T/C [40]: 25.1%
- viability, T/C [3]: 21.1%
- viability, T/C [41]: 115%
- viability, T/C [42]: 94.5%
- viability, T/C [43]: 52.4%
- viability, T/C [7]: 36.5%
- viability, T/C [44]: 21.4%
- viability, T/C [9]: 22%
- viability, T/C [45]: 105%
- viability, T/C [46]: 70.1%
- viability, T/C [47]: 54.2%
- viability, T/C [13]: 33.9%
- viability, T/C [48]: 23.7%
- viability, T/C [15]: 19.8%
- viability, T/C [49]: 91.5%
- viability, T/C [50]: 73.2%
- viability, T/C [51]: 49.9%
- viability, T/C [19]: 37.4%
- viability, T/C [52]: 25%
- viability, T/C [21]: 20.7%
- viability, T/C [53]: 85.9%
- viability, T/C [54]: 63.5%
- viability, T/C [55]: 45.6%
- viability, T/C [25]: 31%
- viability, T/C [56]: 26.4%
- viability, T/C [27]: 18.7%
- viability, T/C [57]: 77.2%
- viability, T/C [58]: 72.2%
- viability, T/C [59]: 58.8%
- viability, T/C [31]: 36.8%
- viability, T/C [60]: 24.1%
- viability, T/C [33]: 23.3%

Structure (SMILES): Cn1ncnc1[C@H]1c2n[nH]c(=O)c3cc(F)cc(c23)N[C@@H]1c1ccc(F)cc1 + Cc1[nH]c2ccc(F)cc2c1-c1nc2c3cccnc3c3ncccc3c2[nH]1
- IC50 (second compound 0.0316 µM): > 0.316 µM
- IC50 (second compound 0.1 µM): > 0.316 µM
- IC50 (second compound 0.316 µM): > 0.316 µM
- IC50 (second compound 1 µM): > 0.316 µM
- IC50 (second compound 3.16 µM): > 0.316 µM
- IC50 (second compound 10 µM): > 0.316 µM
- viability, T/C [37]: 112%
- viability, T/C [38]: 99.2%
- viability, T/C [39]: 94.8%
- viability, T/C [1]: 94.2%
- viability, T/C [40]: 98.1%
- viability, T/C [3]: 89.3%
- viability, T/C [41]: 93.5%
- viability, T/C [42]: 98.2%
- viability, T/C [43]: 101%
- viability, T/C [7]: 91.7%
- viability, T/C [44]: 84.5%
- viability, T/C [9]: 95.6%
- viability, T/C [45]: 86.3%
- viability, T/C [46]: 93.1%
- viability, T/C [47]: 96.7%
- viability, T/C [13]: 103%
- viability, T/C [48]: 91.7%
- viability, T/C [15]: 88.7%
- viability, T/C [49]: 85.5%
- viability, T/C [50]: 101%
- viability, T/C [51]: 98.4%
- viability, T/C [19]: 102%
- viability, T/C [52]: 102%
- viability, T/C [21]: 89.6%
- viability, T/C [53]: 103%
- viability, T/C [54]: 97.7%
- viability, T/C [55]: 113%
- viability, T/C [25]: 104%
- viability, T/C [56]: 87.5%
- viability, T/C [27]: 95%
- viability, T/C [57]: 105%
- viability, T/C [58]: 103%
- viability, T/C [59]: 101%
- viability, T/C [31]: 107%
- viability, T/C [60]: 82.1%
- viability, T/C [33]: 86.4%

Structure (SMILES): O=C(c1cc(Cc2n[nH]c(=O)c3ccccc23)ccc1F)N1CCN(C(=O)C2CC2)CC1 + Cc1[nH]c2ccc(F)cc2c1-c1nc2c3cccnc3c3ncccc3c2[nH]1
- IC50 (second compound 0.0316 µM): > 10 µM
- IC50 (second compound 0.1 µM): > 10 µM
- IC50 (second compound 0.316 µM): > 10 µM
- IC50 (second compound 1 µM): > 10 µM
- IC50 (second compound 3.16 µM): > 10 µM
- IC50 (second compound 10 µM): > 10 µM
- viability, T/C [1]: 110%
- viability, T/C [2]: 91.6%
- viability, T/C [3]: 103%
- viability, T/C [4]: 90.9%
- viability, T/C [5]: 98.8%
- viability, T/C [6]: 54.9%
- viability, T/C [7]: 93.2%
- viability, T/C [8]: 106%
- viability, T/C [9]: 97%
- viability, T/C [10]: 100%
- viability, T/C [11]: 82.3%
- viability, T/C [12]: 66.2%
- viability, T/C [13]: 98.1%
- viability, T/C [14]: 94.5%
- viability, T/C [15]: 91.3%
- viability, T/C [16]: 92.6%
- viability, T/C [17]: 89.9%
- viability, T/C [18]: 53.8%
- viability, T/C [19]: 79.3%
- viability, T/C [20]: 99.4%
- viability, T/C [21]: 97.4%
- viability, T/C [22]: 86%
- viability, T/C [23]: 89.2%
- viability, T/C [24]: 62.1%
- viability, T/C [25]: 99%
- viability, T/C [26]: 101%
- viability, T/C [27]: 113%
- viability, T/C [28]: 105%
- viability, T/C [29]: 93.1%
- viability, T/C [30]: 68.3%
- viability, T/C [31]: 89%
- viability, T/C [32]: 102%
- viability, T/C [33]: 114%
- viability, T/C [34]: 87.6%
- viability, T/C [35]: 86.5%
- viability, T/C [36]: 59.2%
